Assay results from the supplement of paper PMC8612539.

System: Histophilus somni
Assay: minimum inhibitory concentration (MIC)
Description: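 Broth microdilution MIC (Sensititre BOPO7F bovine plate, CLSI methods) of 19 antimicrobials against field isolates of P. multocida, M. haemolytica, H. somni (deep nasopharyngeal swabs) and E. coli, Enterococcus spp. (rectal swabs) from weaned dairy heifers. Incubation 16-24 h at 35 C. MIC is the lowest concentration preventing visible growth. Values with <= or > lie at the tested range limits. Trimethoprim-sulfamethoxazole is given as the trimethoprim component of a 1:19 mixture.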

COc1cc(NS(=O)(=O)c2ccc(N)cc2)nc(OC)n1 [sulfadimethoxine]
Conditions	minimum inhibitory concentration [µg/mL]
isolate (source animal id): 3	≤ 256
isolate (source animal id): 4	≤ 256
isolate (source animal id): 7	≤ 256
isolate (source animal id): 14	≤ 256
isolate (source animal id): 15	≤ 256
isolate (source animal id): 17	≤ 256
isolate (source animal id): 18	≤ 256
isolate (source animal id): 20	≤ 256
isolate (source animal id): 23	> 256
isolate (source animal id): 45	> 256
isolate (source animal id): 53	> 256
isolate (source animal id): 83	≤ 256
isolate (source animal id): 88	≤ 256
isolate (source animal id): 92	≤ 256
isolate (source animal id): 93	≤ 256
isolate (source animal id): 99	≤ 256
isolate (source animal id): 100	≤ 256
isolate (source animal id): 105	≤ 256
isolate (source animal id): 107	≤ 256
isolate (source animal id): 108	≤ 256
isolate (source animal id): 109	≤ 256
isolate (source animal id): 110	≤ 256
isolate (source animal id): 117	≤ 256
isolate (source animal id): 121	≤ 256
isolate (source animal id): 123	≤ 256
isolate (source animal id): 124	≤ 256
isolate (source animal id): 127	≤ 256
isolate (source animal id): 128	≤ 256
isolate (source animal id): 130	≤ 256
isolate (source animal id): 132	≤ 256
isolate (source animal id): 135	≤ 256
isolate (source animal id): 140	≤ 256
isolate (source animal id): 141	≤ 256
isolate (source animal id): 142	≤ 256
isolate (source animal id): 144	≤ 256
isolate (source animal id): 146	≤ 256
isolate (source animal id): 147	≤ 256
isolate (source animal id): 151	≤ 256
isolate (source animal id): 153	≤ 256
isolate (source animal id): 154	≤ 256
isolate (source animal id): 156	≤ 256
isolate (source animal id): 157	≤ 256
isolate (source animal id): 176	> 256
isolate (source animal id): 183	> 256
isolate (source animal id): 186	> 256
isolate (source animal id): 196	> 256
isolate (source animal id): 198	> 256
isolate (source animal id): 200	> 256
isolate (source animal id): 206	> 256
isolate (source animal id): 208	> 256
isolate (source animal id): 210	> 256
isolate (source animal id): 212	≤ 256
isolate (source animal id): 215	> 256
isolate (source animal id): 216	> 256
isolate (source animal id): 218	≤ 256
isolate (source animal id): 219	> 256
isolate (source animal id): 224	> 256
isolate (source animal id): 228	> 256
isolate (source animal id): 230	> 256
isolate (source animal id): 233	> 256
isolate (source animal id): 238	> 256
isolate (source animal id): 239	≤ 256
isolate (source animal id): 241	> 256
isolate (source animal id): 242	> 256
isolate (source animal id): 243	≤ 256
isolate (source animal id): 245	> 256
isolate (source animal id): 246	> 256
isolate (source animal id): 247	> 256
isolate (source animal id): 248	≤ 256
isolate (source animal id): 250	> 256
isolate (source animal id): 251	> 256
isolate (source animal id): 252	> 256
isolate (source animal id): 254	> 256
isolate (source animal id): 258	≤ 256
isolate (source animal id): 259	> 256
isolate (source animal id): 262	≤ 256
isolate (source animal id): 264	≤ 256
isolate (source animal id): 265	> 256
isolate (source animal id): 266	> 256
isolate (source animal id): 267	> 256
isolate (source animal id): 269	≤ 256
isolate (source animal id): 271	> 256
isolate (source animal id): 272	> 256
isolate (source animal id): 274	≤ 256
isolate (source animal id): 276	≤ 256
isolate (source animal id): 278	> 256
isolate (source animal id): 280	> 256
isolate (source animal id): 281	> 256
isolate (source animal id): 283	≤ 256
isolate (source animal id): 288	≤ 256
isolate (source animal id): 291	≤ 256
isolate (source animal id): 292	> 256
isolate (source animal id): 296	≤ 256
isolate (source animal id): 306	> 256
isolate (source animal id): 336	≤ 256
isolate (source animal id): 337	≤ 256
isolate (source animal id): 341	≤ 256

COc1cc(Cc2cnc(N)nc2N)cc(OC)c1OC.Cc1cc(NS(=O)(=O)c2ccc(N)cc2)no1 [trimethoprim-sulfamethoxazole]
Conditions	minimum inhibitory concentration [µg/mL]
isolate (source animal id): 3	≤ 2
isolate (source animal id): 4	> 2
isolate (source animal id): 7	> 2
isolate (source animal id): 14	> 2
isolate (source animal id): 15	≤ 2
isolate (source animal id): 17	> 2
isolate (source animal id): 18	≤ 2
isolate (source animal id): 20	> 2
isolate (source animal id): 23	≤ 2
isolate (source animal id): 45	> 2
isolate (source animal id): 53	> 2
isolate (source animal id): 83	≤ 2
isolate (source animal id): 88	> 2
isolate (source animal id): 92	≤ 2
isolate (source animal id): 93	≤ 2
isolate (source animal id): 99	≤ 2
isolate (source animal id): 100	≤ 2
isolate (source animal id): 105	≤ 2
isolate (source animal id): 107	≤ 2
isolate (source animal id): 108	≤ 2
isolate (source animal id): 109	≤ 2
isolate (source animal id): 110	≤ 2
isolate (source animal id): 117	> 2
isolate (source animal id): 121	> 2
isolate (source animal id): 123	≤ 2
isolate (source animal id): 124	≤ 2
isolate (source animal id): 127	≤ 2
isolate (source animal id): 128	> 2
isolate (source animal id): 130	≤ 2
isolate (source animal id): 132	> 2
isolate (source animal id): 135	> 2
isolate (source animal id): 140	> 2
isolate (source animal id): 141	≤ 2
isolate (source animal id): 142	≤ 2
isolate (source animal id): 144	≤ 2
isolate (source animal id): 146	≤ 2
isolate (source animal id): 147	≤ 2
isolate (source animal id): 151	> 2
isolate (source animal id): 153	≤ 2
isolate (source animal id): 154	≤ 2
isolate (source animal id): 156	≤ 2
isolate (source animal id): 157	≤ 2
isolate (source animal id): 176	≤ 2
isolate (source animal id): 183	≤ 2
isolate (source animal id): 186	≤ 2
isolate (source animal id): 196	≤ 2
isolate (source animal id): 198	≤ 2
isolate (source animal id): 200	≤ 2
isolate (source animal id): 206	≤ 2
isolate (source animal id): 208	≤ 2
isolate (source animal id): 210	≤ 2
isolate (source animal id): 212	≤ 2
isolate (source animal id): 215	≤ 2
isolate (source animal id): 216	≤ 2
isolate (source animal id): 218	≤ 2
isolate (source animal id): 219	≤ 2
isolate (source animal id): 224	≤ 2
isolate (source animal id): 228	≤ 2
isolate (source animal id): 230	≤ 2
isolate (source animal id): 233	> 2
isolate (source animal id): 238	> 2
isolate (source animal id): 239	> 2
isolate (source animal id): 241	≤ 2
isolate (source animal id): 242	≤ 2
isolate (source animal id): 243	≤ 2
isolate (source animal id): 245	> 2
isolate (source animal id): 246	≤ 2
isolate (source animal id): 247	≤ 2
isolate (source animal id): 248	≤ 2
isolate (source animal id): 250	≤ 2
isolate (source animal id): 251	≤ 2
isolate (source animal id): 252	≤ 2
isolate (source animal id): 254	≤ 2
isolate (source animal id): 258	≤ 2
isolate (source animal id): 259	≤ 2
isolate (source animal id): 262	≤ 2
isolate (source animal id): 264	≤ 2
isolate (source animal id): 265	> 2
isolate (source animal id): 266	≤ 2
isolate (source animal id): 267	≤ 2
isolate (source animal id): 269	≤ 2
isolate (source animal id): 271	≤ 2
isolate (source animal id): 272	> 2
isolate (source animal id): 274	≤ 2
isolate (source animal id): 276	≤ 2
isolate (source animal id): 278	≤ 2
isolate (source animal id): 280	> 2
isolate (source animal id): 281	≤ 2
isolate (source animal id): 283	≤ 2
isolate (source animal id): 288	≤ 2
isolate (source animal id): 291	> 2
isolate (source animal id): 292	≤ 2
isolate (source animal id): 296	≤ 2
isolate (source animal id): 306	≤ 2
isolate (source animal id): 336	≤ 2
isolate (source animal id): 337	≤ 2
isolate (source animal id): 341	≤ 2
